Like-named read-outs stand apart in the source and are kept apart here. Marks after values point to notes of the source that are not given here.
Tests used:
S. liquefaciens MG44 = assay: static peg (Calgary Biofilm Device) anti-biofilm assay, crystal violet and OD600; format: cell-based, Serratia liquefaciens
[1] = system: E. coli TG1 + P. aeruginosa PA14; assay: mixed E. coli/P. aeruginosa biofilm assay, crystal violet; format: cell-based; details: 37° C. (Table 3)
Method: Overnight cultures of E. coli TG1 and P. aeruginosa PA14, were diluted 1/100 in the same vial of TSB 1/20 to form a mixed culture suspension.

S. Typhimurium ATCC14028 = assay: static peg (Calgary Biofilm Device) anti-biofilm assay, crystal violet and OD600; details: read-out: BIC50; biofilm formation, 25° C.
E. coli TG1 = assay: as above; details: 37° C.
[2] = system: C. albicans SC5314 + E. coli MG1655; assay: mixed C. albicans/E. coli biofilm assay, selective plating; format: cell-based, Candida albicans; E. coli; details: 37° C.; for CFUs % survival E. coli: E. coli in mixed biofilm with C. albicans
Method: Overnight cultures of C. albicans SC5314 (YPD) and E. coli MG1655 (TSB). were washed three times with PBS, after which they were diluted in RPMI medium to optical densities at 600 nm (OD600) of 1 and 0.01, respectively. Equal volumes of these cell suspensions were mixed, and 100 μl of this mixed cell suspension together with compound was added to the wells of a microtiter plate in triplicate. The concentrations 25 μM (0.0625% DMSO or ethanol) and 100 μM (0.25% DMSO or ethanol) were tested. After 24 h incubation at 37° C. the medium was removed and the biofilm was washed with PBS. Next, the cells were re-suspended in 100 μl of PBS by scraping off, sonication (1 min, 45 kHz, USC300-T; VWR, Radnor, Pa., USA) and vigorously pipetting up-and-down. Finally, dilution series were made, and quantification of E. coli MG1655 and C. albicans SC5314 populations was performed using selective plating on TSA plates containing 25 mg/L amphotericin B and YPD plates containing 100 μg/ml tetracycline, respectively. The percentage of C. albicans SC5314 and E. coli MG1655 cells was determined relative to the DMSO or ethanol control treatment.

S. epidermidis = assay: static peg (Calgary Biofilm Device) anti-biofilm assay, crystal violet and OD600; details: 37° C.
C. albicans SC5314 = assay: inhibition of C. albicans biofilms, cell titer blue (CTB) quantification; format: cell-based, Candida albicans; details: biofilm formation, read-out: BIC50
Method: The potential of the compounds to prevent C. albicans SC5314 biofilm formation was assessed using the cell titer blue (CTB) quantification method (26). For the CTB method, an overnight culture of C. albicans SC5314 was washed with PBS and a cell suspension of 10^6 cells/ml (OD600=0.1) was prepared in RPMI 1640 medium (pH 7.0). […] After 16 h of static incubation at 37° C., biofilms were washed and quantified with CTB as described previously.

B. cepacia LMG1222T = assay: static peg (Calgary Biofilm Device) anti-biofilm assay, crystal violet and OD600; details: 25° C.
S. aureus SH1000 = assay: as above; details: 37° C.
[3] = system: S. aureus ATCC6538 + S. epidermidis; assay: mixed S. aureus/S. epidermidis biofilm assay, crystal violet; format: cell-based; details: 37° C. (Table 3)
Method: Overnight cultures of S. aureus ATCC6538 and S. epidermidis were grown in LB medium and were diluted 1/200 in the same vial of TSB to form a mixed culture suspension.

[4] = system: C. albicans SC5314 + S. aureus SH1000; assay: mixed C. albicans/S. aureus biofilm assay, selective plating; format: cell-based, Candida albicans; Staphylococcus aureus; details: 37° C.; for CFUs % survival S.a.: S. aureus in mixed biofilm with C. albicans
Method: Overnight cultures of C. albicans SC5314 (YPD, 30° C.) and S. aureus SH1000 (LB, 37° C.) were washed with PBS, after which they were diluted in RPMI medium to obtain cell suspensions of 10^6 cells/ml for fungal cells and 10^8 cells/ml for bacteria. Equal volumes of these cell suspensions were mixed, and 100 μl of this mixed cell suspension together with compound was added to the wells of a microtiter plate in triplicate. The concentrations 25 μM (0.0625% DMSO or ethanol) and 100 μM (0.25% DMSO or ethanol) were tested. The plates were incubated at 37° C. for 90 min. After incubation the wells were washed twice with PBS, and 200 μl of the fresh RPMI medium with or without compounds was added in triplicate to the wells. After 24 h incubation at 37° C. the medium was removed and the biofilm was washed with PBS. Next, the cells were re-suspended in 100 μl of PBS by scraping off, sonication (1 min, 45 kHz, USC300-T; VWR, Radnor, Pa., USA) and vigorously pipetting up-and-down. Finally, dilution series were made, and quantification of S. aureus SH1000 and C. albicans SC5314 populations was performed using selective plating on TSA plates containing 25 mg/L amphotericin B and YPD plates containing 100 μg/ml tetracycline, respectively. The percentage of C. albicans SC5314 and S. aureus SH1000 cells was determined relative to the DMSO or ethanol control treatment.

P. aeruginosa PA14 = assay: static peg (Calgary Biofilm Device) anti-biofilm assay, crystal violet and OD600
P. gingivalis ATCC33277 = assay: as above; details: 37° C.
[5] = mixed biofilm formation, read-out: BIC50
[6] = planktonic growth of mixed culture, read-out: IC50
[7] = read-out: BIC50, biofilm formation
[8] = C. albicans in mixed biofilm with E. coli MG1655, 25 μM
[9] = C. albicans in mixed biofilm with E. coli MG1655, 100 μM
[10] = C. albicans in mixed biofilm with S. aureus SH1000, 25 μM
[11] = C. albicans in mixed biofilm with S. aureus SH1000, 100 μM
[12] = read-out: BIC50, biofilm formation, 25° C.
[13] = read-out: BIC50, biofilm formation, 37° C.
[14] = biofilm formation, 25° C., read-out: BIC50
[15] = planktonic growth, 25° C., read-out: IC50

Structure (SMILES) | IC50 [1, 5] [µM] | IC50 [1, 6] [µM] | IC50 (S. Typhimurium ATCC14028) [µM] | IC50 (E. coli TG1; planktonic growth) [µM] | IC50 (E. coli TG1; [7]) [µM] | CFUs % survival C.a. [2, 8] [%] | CFUs % survival C.a. [2, 9] | CFUs % survival E. coli ([2]; 25 μM) [%] | CFUs % survival E. coli ([2]; 100 μM) | IC50 (S. epidermidis; planktonic growth) [µM] | IC50 (S. epidermidis; [7]) [µM] | IC50 (B. cepacia LMG1222T; planktonic growth) [µM] | IC50 (B. cepacia LMG1222T; [7]) [µM] | IC50 (S. aureus SH1000; planktonic growth) [µM] | IC50 (S. aureus SH1000; [7]) [µM] | IC50 [3, 5] [µM] | IC50 [3, 6] [µM] | CFUs % survival C.a. [4, 10] [%] | CFUs % survival C.a. [4, 11] | CFUs % survival S.a. ([4]; 25 μM) [%] | other results
CCCCCCCCn1c(-c2ccc(Cl)cc2)cnc1N [Compound 2] | 36.8 | 19.9 | ~5.9 | 7.7 | ~6.5 | 104.9 | 0.0* % | 158.6 | 0.1* % | ~11.1 | ~5.6 | > 400 | 145 | 8.3 | 3.4 | ~7.2 | ~9.9 | 183.8 | 0.9* % | 87.7 | IC50 (S. liquefaciens MG44; biofilm formation, read-out: BIC50): 18.8 µM; IC50 (S. liquefaciens MG44; planktonic growth, read-out: IC50): 38 µM; IC50 (C. albicans SC5314): 6.2 µM; CFUs % survival S.a. ([4]; 100 μM): 0.2* %; IC50 (P. aeruginosa PA14; planktonic growth, 37° C.): 10 µM; IC50 (P. aeruginosa PA14; [12]): 4 µM; IC50 (P. aeruginosa PA14; [13]): 118 µM; IC50 (P. gingivalis ATCC33277; planktonic growth): 6 µM; IC50 (P. gingivalis ATCC33277; [7]): 3.9 µM
CC(C)CNc1ncc(-c2ccc(Cl)cc2)[nH]1 [Compound 3] | 7.4 | > 400 | 2 | 30 | 110 | 143.4 | 59.6* % | 138.5 | 63.0* % | 86.2 | > 400 | > 400 | 88.1 | ~175 | ~200 | ~26.3 | ~140 | 165.7 | 141.3% | 124.6 | IC50 (S. liquefaciens MG44; [14]): 10.4 µM; IC50 (S. liquefaciens MG44; [15]): 154 µM; IC50 (C. albicans SC5314; 37° C.): 93.9 µM; CFUs % survival S.a. ([4]; 100 μM): 51.8* %; IC50 (P. aeruginosa PA14; planktonic growth, 37° C.): > 400 µM; IC50 (P. aeruginosa PA14; [12]): 0.9 µM; IC50 (P. aeruginosa PA14; [13]): > 400 µM; IC50 (P. gingivalis ATCC33277; planktonic growth): 5.1 µM; IC50 (P. gingivalis ATCC33277; [7]): 5.3 µM
Clc1ccc(-c2cnc(NC3CCCC3)[nH]2)cc1 [Compound 5] | 0.5 | > 400 | 4.4 | 17.1 | ~45.7 | 100.8 | 38.3* % | 100.6 | 105.6* % | 39.5 | > 400 | > 400 | 331 | 71.5 | 70.6 | ~66.6 | ~91.7 | 232.4 | 120.6% | 75.4 | IC50 (S. liquefaciens MG44; [14]): 8.8 µM; IC50 (S. liquefaciens MG44; [15]): 125 µM; IC50 (C. albicans SC5314; 37° C.): 64 µM; CFUs % survival S.a. ([4]; 100 μM): 74.5* %; IC50 (P. aeruginosa PA14; planktonic growth, 37° C.): > 400 µM; IC50 (P. aeruginosa PA14; [12]): 13.5 µM; IC50 (P. aeruginosa PA14; [13]): > 400 µM; IC50 (P. gingivalis ATCC33277; planktonic growth): 4 µM; IC50 (P. gingivalis ATCC33277; [7]): 5.7 µM
